{"source": "patent US20090305994A1", "about": "“Compounds Modulating Vegf Receptor and Uses Thereof” (priority 2005, published 2009)", "format_in_all_cases": "cell-based, bovine", "key": {"[1]": {"tested_on": "BAEC", "test": "Cells proliferation assay (cell number)", "details": "24 hours", "method": "(§1) Effect of QK on cell proliferation. a) DNA synthesis. BAEC were incubated in DMEM with [^3H]-thymidine and QK in absence or in presence of VEGF165 (100 ng/ml). After 24 hours cells were fixed and lysed. Scintillation liquid was added and [^3H]-thymidine incorporation was evaluated. b) Cell proliferation. BAEC were stimulated with the indicated amount of QK in absence or in presence of VEGF165 (100 ng/ml). Cell number was determined at 24 hours after stimulation. c) RB phosphorylation. p-RB was evaluated at 12 and 18 hours after stimulation with QK (10^-6M), VEGF165 (100 ng/ml) and VEGF 15 (10^−6 M).\n(§2) Cells proliferation assay. Cells were seeded at a density of 10000 per well in six well plates, serum starved overnight and then stimulated with QK (10-12 to 10^−6 M) in absence or in presence of VEGF165. Cell number was determined at 24 hours after stimulation. The p-RB, was evaluated by western blot 12 and 18 hours after stimulation with QK (10^−6 M), VEGF165 and VEGF 15 (10^−6 M)."}, "[2]": {"target": "T1, KDR (Bos taurus, UniProt A0AAA9SPC9)", "T1 construct": "we immunoprecipitated total KDR and Flt-1 from BAEC whole extracts; endogenous in cells; host or cells: BAEC (bovine aorta endothelial cells, SV40-immortalized)", "T1 sequence (A0AAA9SPC9 20-1356)": "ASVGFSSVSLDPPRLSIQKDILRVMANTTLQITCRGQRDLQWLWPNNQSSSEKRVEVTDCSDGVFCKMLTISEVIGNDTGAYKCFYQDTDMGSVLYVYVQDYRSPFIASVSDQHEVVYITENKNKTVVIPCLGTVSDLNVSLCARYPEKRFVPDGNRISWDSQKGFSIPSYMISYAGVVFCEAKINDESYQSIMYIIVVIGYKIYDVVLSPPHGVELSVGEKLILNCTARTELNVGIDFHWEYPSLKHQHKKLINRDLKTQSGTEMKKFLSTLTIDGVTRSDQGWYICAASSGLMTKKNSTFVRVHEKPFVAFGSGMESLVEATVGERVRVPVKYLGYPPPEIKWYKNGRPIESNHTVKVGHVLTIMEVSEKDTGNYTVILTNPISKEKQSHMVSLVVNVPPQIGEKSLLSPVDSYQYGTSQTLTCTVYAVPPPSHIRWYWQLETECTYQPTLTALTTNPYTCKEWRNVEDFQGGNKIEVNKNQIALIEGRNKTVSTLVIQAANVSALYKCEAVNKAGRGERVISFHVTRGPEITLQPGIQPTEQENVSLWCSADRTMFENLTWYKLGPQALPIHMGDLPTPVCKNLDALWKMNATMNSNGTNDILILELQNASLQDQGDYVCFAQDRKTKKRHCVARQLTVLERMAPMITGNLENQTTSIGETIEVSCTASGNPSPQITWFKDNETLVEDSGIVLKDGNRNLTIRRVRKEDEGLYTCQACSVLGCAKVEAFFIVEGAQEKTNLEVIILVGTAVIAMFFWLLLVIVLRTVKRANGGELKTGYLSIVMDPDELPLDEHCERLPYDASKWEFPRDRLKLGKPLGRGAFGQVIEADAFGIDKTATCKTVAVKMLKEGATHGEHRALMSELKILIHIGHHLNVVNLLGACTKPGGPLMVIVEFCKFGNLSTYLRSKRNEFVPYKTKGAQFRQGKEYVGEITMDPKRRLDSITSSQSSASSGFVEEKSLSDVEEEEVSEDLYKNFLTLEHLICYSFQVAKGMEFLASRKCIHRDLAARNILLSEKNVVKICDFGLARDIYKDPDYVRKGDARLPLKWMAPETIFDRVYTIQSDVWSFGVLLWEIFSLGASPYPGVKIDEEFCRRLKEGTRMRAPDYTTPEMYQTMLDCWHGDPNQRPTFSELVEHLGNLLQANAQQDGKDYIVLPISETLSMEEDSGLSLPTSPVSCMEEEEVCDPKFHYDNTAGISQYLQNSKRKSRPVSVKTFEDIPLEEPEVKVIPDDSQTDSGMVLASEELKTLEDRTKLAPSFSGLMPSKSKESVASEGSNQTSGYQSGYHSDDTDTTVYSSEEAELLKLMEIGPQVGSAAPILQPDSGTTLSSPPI", "test": "KDR activation (immunoprecipitation, phospho-tyrosine western blot) in BAEC", "details": "15 minutes of exposure", "method": "VEGF receptors binding and activation. a) VEGF competitive binding on BAEC. 1 μg of membrane protein was plated with QK and [^125I]-VEGF (500000 cpm, 10^−10 M). b) KDR activation. After stimulation total KDR was immunoprecipitated from a whole-cell protein extracts and phospho-tyrosine was visualized by a specific antibody, anti-rabbit HRP-conjugated secondary antibody and standard chemiluminescence. c) Flt-1 activation. After stimulation total Flt-1 was immunoprecipitated from a whole-cell protein extracts and phospho-tyrosine was visualized by specific antibody, anti-rabbit HRP-conjugated secondary antibody and standard chemiluminescence.\nWestern blot. Cells were plated on six-well dishes and serum starved overnight. On the next day, cells were treated with different amount of peptide in absence or in presence of VEGF165 for 15 minutes at 37° C. and then dissolved in RIPA-SDS buffer (50 mM Tris-HCl (pH 7.5), 150 mM NaCl, 1% NP-40, 0.25% deoxycholate, 9.4 mg/50 ml sodium orthovanadate, […]). In some experiments, total KDR and Flt-1 were immunoprecipitated from an equal amount of whole-cell protein extracts using protein A/G agarose beads conjugated with antibodies raised against total KDR or Flt-1 (R&D). Proteins from whole-cell extracts or immunocomplexes were resolved by PAGE and transferred to nitrocellulose. […]"}, "[3]": {"tested_on": "BAEC", "test": "[3H]-thymidine incorporation (DNA synthesis)", "details": "24 hours", "method": "as §1\n[^3H]-thymidine incorporation. Cells were serum starved for 24 hours and then incubated in DMEM with [^3H]-thymidine (Amersham) and QK alone (10^−12-10^−6 M) or with a combination of QK and VEGF165. After 24 hours cells were fixed with trichloracetic acid ([…]) and dissolved in NaOH 1M. Scintillation liquid was added and thymidine incorporation was evaluated with a beta counter."}, "[4]": {"tested_on": "RB", "test": "RB phosphorylation (western blot)", "details": "12 and 18 hours; QK 10^-6 M, VEGF165 100 ng/ml, VEGF 15 10^-6 M", "method": "as §1, §2"}, "[5]": {"tested_on": "ERK1/2", "test": "ERK1/2 activation in BAEC (western blot)", "method": "Effect of QK and VEGF15 on ERK1/2 activation. Serum deprived BAEC were treated with QK (a) or with VEGF 15 (b) in absence or in presence of VEGF165 (100 ng/ml) for 15 minutes at 37° C. and then dissolved in RIPA-SDS buffer. Total ERK1/2 and the phosphorylated form of ERK1/2 were visualized by specific antibodies.\nWestern blot. Cells were plated on six-well dishes and serum starved overnight. On the next day, cells were treated with different amount of peptide in absence or in presence of VEGF165 for 15 minutes at 37° C. and then dissolved in RIPA-SDS buffer (50 mM Tris-HCl (pH 7.5), 150 mM NaCl, 1% NP-40, 0.25% deoxycholate, 9.4 mg/50 ml sodium orthovanadate, […]). In some experiments, total KDR and Flt-1 were immunoprecipitated from an equal amount of whole-cell protein extracts using protein A/G agarose beads conjugated with antibodies raised against total KDR or Flt-1 (R&D). Proteins from whole-cell extracts or immunocomplexes were resolved by PAGE and transferred to nitrocellulose. Total extracellular signal-regulated kinase 1 and 2 (ERK1/2), serine-tyrosin phosphorylated ERK1/2, phospho-tyrosine (Cell signaling) and phospho-RB (p-RB) (Santacruz) were visualized by specific antibodies, anti-rabbit HRP-conjugated secondary antibody (Santacruz) and standard chemiluminescence (Pierce).\nActivation of the proliferative intracellular pathways. We then explored whether QK is able to start the pathways of endothelial cell activation. It is well established that angiogenesis modulate by VEGF is largely ERK1/2 dependent, leading to DNA synthesis and cell proliferation (7). Accordingly, we assessed the effects of QK on this kinase. […] To verify whether ERK1/2 activation to QK results in cell proliferation, we studied cell proliferation indicators such as cell number, DNA synthesis and cyclin activation."}}, "data": [{"sequence": "KLTWQELYQLKYKGI [QK]", "values": [{"measurement": "cell proliferation (cell number)", "setting": "[1]; peptide alone", "value": "produces cell proliferation per se"}, {"measurement": "cell proliferation in presence of VEGF", "setting": "[1]; with VEGF165 100 ng/ml", "value": "enhances VEGF response"}, {"measurement": "phospho-KDR levels", "setting": "[2]", "value": "reduced phospho-KDR below the levels in unstimulated cells"}, {"measurement": "DNA synthesis ([3H]-thymidine incorporation)", "setting": "[3]; peptide alone", "value": "increased DNA synthesis at any dosages"}, {"measurement": "DNA synthesis in presence of VEGF", "setting": "[3]; with VEGF165 100 ng/ml", "value": "the effect was enhanced in presence of VEGF"}, {"measurement": "phosphorylation of the cyclin RB", "setting": "[4]", "value": "enhanced phosphorylation of the cyclin RB"}, {"measurement": "ERK1/2 activation in presence of VEGF", "setting": "[5]; BAEC, with VEGF165 100 ng/ml, 15 minutes", "value": "additive to VEGF"}, {"measurement": "ERK1/2 activation", "setting": "[5]; serum deprived BAEC, 15 minutes at 37° C.", "value": "leaded to ERK1/2 activation in a dose dependent fashion"}]}]}
